A short description of the series: gradient 5% acetonitrile 3 min, to 50% in 2 min, to 85% in 15 min, held 3 min, 100 µL/min. The conditions noted are these: column: Zorbax Extend-C18 2.1 x 50 mm; eluents: water / acetonitrile, 0.1% formic acid. In outline:
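In both positive and negative ionization mode, a quadrupole time-of-flight mass spectrometer coupled to HPLC analyzed pure standards run in mixtures of ~100 molecules. The Zorbax Extend-C18 column (2.1 × 50 mm, 1.8 μm) was operated at 100 μL/min with water and acetonitrile, each containing 0.1% formic acid. The dead volume was 40 μL and the dwell volume 900 μL. Retention time came from adduct peaks that were computationally picked and individually inspected by hand.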
The compound `CCC(=O)N1CCc2cc(CNS(=O)(=O)c3ccc(OC)c(OC)c3)ccc21` registered an RP-LC retention time of 747 s.

The compound `Cc1ccc(Nc2c(-c3ccc(N(C)C)cc3)nc3ccccn23)cc1` showed an RP-LC retention time of 743 s. Compound `CN1CCCN(c2ccc(NC(=O)c3ccc(Br)cc3)c(C(=O)O)c2)CC1` yielded an RP-LC retention time of 670 s. The compound `COc1ccc(-c2ncc3c(n2)CCN(C(=O)c2ccc(C)c(C)c2)C3)cc1` had an RP-LC retention time of 1030 s. With `CCOc1ccccc1C(=O)N1CCC2(CC1)NCc1ccccc1-n1ccnc12`, the RP-LC retention time came out at 572 s.

The compound `O=c1ccn(-c2cccc(F)c2)nc1-c1nc(-c2ccccc2Br)no1` had an RP-LC retention time of 905 s. The same measure for `Cc1cccc(-c2nocc2CCC(=O)NCc2ccccc2)c1`: 907 s; for `O=[N+]([O-])c1c(NCCO)cc(Nc2ccc3c(c2)OCCO3)c2nonc12`: 660 s.

For `CCn1ccc(C(=O)N2CCC(n3c(C)cnc3C3CCC3)C2)n1` (centres undefined), the RP-LC retention time amounted to 576 s.

In turn, `OCCc1nc2ccccc2n1C/C=C/c1ccccc1` registered an RP-LC retention time of 586 s. The same measure for `COc1ccc(C(=O)N2CCC3(CC2)NC(=O)c2cc(C)ccc2N3C)c(OC)c1`: 754 s; for `Cc1nc(-c2ccccc2)cc2nn(CC(=O)NC3CCCC3)c(=O)n12`: 865 s. With `Cc1ccc(C)c(-c2cc3c(=O)n(Cc4nc(-c5ccc6c(c5)OCO6)no4)ncn3n2)c1`, the RP-LC retention time stood at 683 s.

`COCCCN(Cc1ccco1)c1nc(-c2ccc(OC)cc2)nc2ccccc12`: the RP-LC retention time stood at 823 s.

The compound `COc1cc(CNC(=O)c2cnc(-c3ccccc3)nc2-c2ccncc2)cc(OC)c1` returned an RP-LC retention time of 823 s. In the case of `Cc1nc(CC(=O)Nc2nc(-c3ccccc3)c(C)s2)cs1`, the RP-LC retention time turned out to be 894 s. In turn, `O=c1c2sccc2n(Cc2nc(-c3ccc(F)c(Cl)c3)no2)c(=O)n1-c1cccc(F)c1` came in with an RP-LC retention time of 1070 s. For `CN1CC(=O)NC(c2ccccc2F)C1=O` (centres undefined), the RP-LC retention time came to 513 s. The same measure for `CCC(=C(c1ccccc1)c1ccc(OCCN(C)C)cc1)c1ccccc1`: 1010 s; for `Cc1ccc2c(Nc3ccc(F)c(Cl)c3)c(C(=O)N3CCOCC3)cnc2n1`: 601 s; for `COC(=O)c1cc(S(=O)(=O)N2CCCC2C(=O)Nc2ccc(Br)c(C)c2)cn1C` (centres undefined): 1010 s. `CCCCCn1c(SCC(=O)OCC)nc2cc(C(=O)N3CCC(C(N)=O)CC3)ccc2c1=O` gave an RP-LC retention time of 783 s.

The compound `COC(=O)c1cc(C)nc2c1c(=O)n(Cc1cccc(F)c1)c(=O)n2C` displayed an RP-LC retention time of 973 s. The same measure for `CC(C)CNC(=O)C1CCN(C(=O)c2ncn3c2COC(c2ccccc2)C3)CC1` (centres undefined): 702 s; for `CCc1nc(OCC(=O)Nc2ccccc2F)c2ccccc2n1`: 775 s; for `COc1cc(NC(=O)Nc2nccn(-c3ccc(Cl)cc3)c2=O)cc(OC)c1`: 970 s. The same measure for `Cc1ccc(-c2nnc(Cc3nc(-c4ccc5c(c4)OCO5)no3)o2)cc1F`: 1020 s; for `CCn1nccc1-c1csc(S(=O)(=O)N2CCCC2)c1`: 864 s; for `OC1(c2ccc(Cl)cc2)CCN(Cc2c[nH]c3ccccc23)CC1`: 736 s. To `O=C(Cc1ccc(Cl)cc1)N1CCCN(C2CCN(CC3CC3)C2=O)CC1` (centres undefined) belongs 581 s. `O=C(Nc1ccc(F)cc1F)c1ncccn1`: the RP-LC retention time was 661 s.

As for `CN(C)c1cc(OC2CCN(C(=O)c3cnn4cccnc34)C2)ncn1` (centres undefined), the RP-LC retention time turned out to be 578 s.

`Cc1cc(NC(=O)CN2C(=O)CN(C)C(=O)c3ccccc32)ccc1Br`: the RP-LC retention time turned out to be 765 s. `CCOc1cc(=O)n2c(c1C(=O)Nc1ccc(C(N)=O)cc1)CCCC2` had an RP-LC retention time of 584 s.

As for `COc1ccc(CNS(=O)(=O)c2cc(-c3nc(C(C)(C)C)cs3)cs2)cc1`, the RP-LC retention time was 1200 s. In turn, `CCc1ccc2oc(C(=O)NCC(c3ccccc3)N(C)C)cc(=O)c2c1` (centres undefined) yielded an RP-LC retention time of 642 s.

Take `CCn1c(SCC(=O)Nc2nc(-c3ccccc3)cs2)nnc1-c1cc2ccccc2o1`: the RP-LC retention time stood at 1070 s. The same measure for `COc1cc2c(cc1OC)C(C(=O)NCCN1CCOCC1)C1c3ccccc3CCN1C2=O` (centres undefined): 595 s; for `CCOc1ccc(NC(=O)CSc2ccc(S(=O)(=O)c3ccccc3)nn2)cc1`: 906 s.

As for `Cc1cc(NC(=O)COc2coc(CN3CCN(C(=O)c4ccco4)CC3)cc2=O)no1`, the RP-LC retention time came out at 549 s. The same measure for `Cc1ccccc1CNC(=O)Cn1c(=O)c2nncn2c2ncccc21`: 662 s; for `CCC(C(=O)NC1(c2nc(-c3cccnc3)no2)CCCCC1)c1ccccc1` (centres undefined): 1010 s. With `CCOc1ccc(C(=O)N2CCC3(CC2)NC(=O)c2cccc(Cl)c2N3)cc1`, the RP-LC retention time came out at 790 s. `NC1=NC(c2ccc(Cl)cc2)N(c2ccc(S(N)(=O)=O)cc2)C(N)=N1` (centres undefined) displayed an RP-LC retention time of 629 s.

Turning to `CCOc1ccc(C(=O)N2CCC[C@@H]2C(=O)NCCc2csc(C)n2)cc1`, the RP-LC retention time was 846 s. In turn, `O=C(Cc1cccs1)NCc1cc(-c2ccc(Cl)cc2)on1` displayed an RP-LC retention time of 858 s.

Regarding `Fc1ccccc1N1CCN(c2ncc3c(n2)CCN(Cc2cccc(F)c2F)C3)CC1`, the RP-LC retention time was found to be 826 s. To `CC1CCCCN1C(=O)c1ccc2c(c1)Sc1ncccc1C(=O)N2C(C)C` (centres undefined) belongs 810 s; to `CC(C)c1nncn1C1CCN(S(=O)(=O)c2ccccc2Cl)CC1`, 716 s. The same measure for `CC(C)NC(=O)C1CCCN(c2nc3ncn(CC(=O)Nc4ccc(F)c(F)c4)c(=O)c3s2)C1` (centres undefined): 716 s; for `CCCC(=O)N1CC(c2nc(-c3cccnc3)no2)C2(CCOCC2)C1` (centres undefined): 622 s; for `O=C(N1CCC[C@H]1c1nc(-c2ccccc2)n[nH]1)C1(c2ccccc2)CC1`: 785 s. To `Cc1ccc(CN2C(=O)Cn3cccc3C2C(=O)NC2CCCC2)cc1` (centres undefined) belongs 892 s; to `COc1cc(S(N)(=O)=O)c(OC)cc1N`, 616 s; to `COc1ccc(OC)c(NC(=O)N(C)CCc2noc(COc3ccc(F)cc3)n2)c1`, 919 s. Compound `O=C(NC1CCCCCC1)C1CCCN(C(=O)c2ccc(Cl)cc2)C1` (centres undefined) yielded an RP-LC retention time of 904 s. Consider `O=C(Nc1ccc(Br)c(F)c1)c1cnc(-c2ccccc2)nc1-c1ccncc1`, for which the RP-LC retention time turned out to be 1030 s. Take `O=C(Cn1nc2c(SCc3ccc(Cl)cc3)nccn2c1=O)N1CCN(c2ccccc2)CC1`: the RP-LC retention time was 1040 s. In turn, `Cc1cc(=O)n(CC(=O)Nc2ccc(Br)cc2)c(N)n1` had an RP-LC retention time of 609 s. Turning to `c1ccc(N2CCN(Cc3csc4c3CCCC4)CC2)nc1`, the RP-LC retention time turned out to be 605 s.

With `Cc1oc(-c2[nH]ncc2C(=O)N2CCCC2)cc1S(=O)(=O)Nc1ccccc1`, the RP-LC retention time came out at 685 s.

Turning to `CN(C(=O)CN1C(=O)C(O)(c2cccc(F)c2)c2ccccc21)c1ccccc1` (centres undefined), the RP-LC retention time turned out to be 856 s.

In turn, `O=C(Cc1ccc(Cl)cc1)N1CCN(c2ncccc2-c2nnc(C3CC3)o2)CC1` displayed an RP-LC retention time of 872 s. In turn, `Cc1cc(C)cc(S(=O)(=O)N2CCC(C(=O)NCCc3csc(-c4ccccc4)n3)CC2)c1` registered an RP-LC retention time of 1020 s. The compound `Cc1ccc(C(C)C)c(OCC(=O)N(Cc2ccc(C)o2)C2CCS(=O)(=O)C2)c1` (centres undefined) registered an RP-LC retention time of 1110 s. The same measure for `Cc1csc(C(=O)Nc2nnc(SCC(=O)Nc3cccnc3)s2)c1`: 597 s; for `CS(=O)(=O)N1CCCC(C(=O)Nc2ccc3c(c2)C(=O)NC3=O)C1` (centres undefined): 612 s. `COc1ccc(C(=O)NCc2nc3ccccc3[nH]2)cc1` registered an RP-LC retention time of 555 s. The same measure for `COc1ccc(-c2nc3ncc4c(=O)n(CCc5c[nH]c6ccccc56)ccc4n3n2)cc1`: 940 s; for `Cc1noc(C)c1C1CCCN1C(=O)CCc1ccccc1` (centres undefined): 775 s; for `CC1(C)CC(=O)c2cn(-c3ccccc3)c(=O)c(C(=O)Nc3cccnc3)c2C1`: 700 s. As to `O=C(Nc1ccc(N2CCN(C3CCCC3)C2=O)nc1)c1ccc(F)c(F)c1`, the RP-LC retention time was 916 s. To `CCn1cnc(S(=O)(=O)N2CCC(C(=O)Nc3ccc(OC)cc3)CC2)c1` belongs 666 s; to `CCc1noc(C2CCCCN2C(=O)c2c[nH]c3ccccc23)n1` (centres undefined), 647 s. The same measure for `COc1ccc2c(=O)c3c(=O)n(Cc4ccccc4)c(-c4cccs4)nc3oc2c1`: 743 s; for `Cc1cccc(OCc2nc(C)c(C(=O)Nc3nc(-c4ccccc4)cs3)s2)c1`: 1230 s; for `Cc1ccc(S(=O)(=O)Nc2ccc(-c3cn4cccc(C)c4n3)cc2)cc1C`: 625 s. The same measure for `O=C(NCC1CCCO1)C1CCN(C(=O)c2cccn2-c2cccnc2)CC1` (centres undefined): 602 s; for `CCc1ccc(-c2noc(CSc3nc4cc5c(cc4c(=O)n3CCOC)OCO5)n2)cc1`: 1190 s.

For the origin of these results see the METLIN SMRT retention time set (Domingo-Almenara et al. 2019).
